Data from patent US20040050294A1, “Coloring material and color filter” (Dai Nippon Printing Co., Ltd., priority 1999, published 2004).

Assay: Solubility in solvents
Type: physicochemical
Conditions: for solubility in solvents: PGMEA (methoxypropyl acetate): solvent PGMEA; for solubility in solvents: chloroform: solvent chloroform; for solubility in solvents: cyclohexanone: solvent cyclohexanone; for solubility in solvents: ethyl acetate: solvent ethyl acetate; for solubility in solvents: THF: solvent THF; for solubility in solvents: methanol: solvent methanol

| SMILES | solubility in solvents: PGMEA (methoxypropyl acetate) | solubility in solvents: chloroform | solubility in solvents: cyclohexanone | solubility in solvents: ethyl acetate | solubility in solvents: THF | solubility in solvents: methanol |
| --- | --- | --- | --- | --- | --- | --- |
| CCC(C)(C)OC(=O)N1C(=O)C2=C(c3ccc(Cl)cc3)N(C(=O)OC(C)(C)CC)C(=O)C2=C1c1ccc(Cl)cc1 [DPP, N,N′-bis-tert-amyloxycarbonyl-1,4-diketo-3,6-di(4′-chlorophenyl)pyrrolo-[3,4-c]pyrrole, reference compound] | 5 % by weight | 10 % by weight | 10 % by weight | not more than 1 % by weight |  |  |
| CCC(C)(C)OC(=O)N/C(=C1/C(=O)N(C(=O)OC(C)(C)CC)C(c2ccc(Cl)cc2)=C1C(=O)OC)c1ccc(Cl)cc1 [compound 1] | 2 % by weight | 50 % by weight | 10 % by weight | 4.55 % by weight | 28.57 % by weight | 0.2 % by weight |
| CCC(C)(C)OC(=O)N/C(=C1/C(=O)NC(c2ccc(Cl)cc2)=C1C(=O)OC)c1ccc(Cl)cc1 [compound 2] | 0.67 % by weight | 2 % by weight | 5 % by weight | 1 % by weight | 12.5 % by weight | 0.1 % by weight |
